Earlier results as cited in patent US10160759B2, “Hydroxyethyl sulfonate of cyclin-dependent protein kinase inhibitor, crystalline form thereof and preparation method therefor” (Jiangsu Hengrui Medicine Co., Ltd., priority 2015, dated 2018).

Settings: patients, clinical trial NCT00721409

In the case of `N#Cc1ccc(C(c2ccc(C#N)cc2)n2cncn2)cc1` [letrozole], the “progression-free survival (PFS)” value is given as 7.5 months.
